test: Inhibition of Respiratory syncytial virus A2 fusion protein expressed in HEK293T cells harboring GAL4-NF-kappaB assessed as reduction in cell-cell fusion by luciferase assay

Row | Compound | IC50 [nM]
1 | CC(C)CCn1c(CN2C(=O)C3(CC3)c3ccccc32)nc2cc(CN)ccc21 | 0.4
2 | CC(C)CCn1c(CN2C(=O)C3(CC3)c3c(Cl)cccc32)nc2cc(CN)ccc21 | 11
3 | CC(C)CCn1c(CN2C(=O)C3(CC3)c3cc(F)ccc32)nc2cc(CN)ccc21 | 0.7
4 | CC(C)CCn1c(CN2C(=O)C3(CC3)c3cc(Cl)ccc32)nc2cc(CN)ccc21 | 4.5
5 | CC(C)CCn1c(CN2C(=O)C3(CC3)c3ccc(F)cc32)nc2cc(CN)ccc21 | 0.5
6 | CC(C)CCn1c(CN2C(=O)C3(CC3)c3ccc(Cl)cc32)nc2cc(CN)ccc21 | 1.2
7 | CC(C)CCn1c(CN2C(=O)C3(CC3)c3cccc(Cl)c32)nc2cc(CN)ccc21 | 47
8 | CC(C)CCn1c(CN2C(=O)C3(CC3)c3cccc(F)c32)nc2cc(CN)ccc21 | 1.3
9 | CS(=O)(=O)CCCn1c(CN2C(=O)C3(CC3)c3ccc(F)cc32)nc2cc(CN)ccc21 | 2.6
10 | NCc1ccc2c(c1)nc(CN1C(=O)C3(CC3)c3ccc(F)cc31)n2CCCCO | 1.5
11 | NCc1ccc2c(c1)nc(CN1C(=O)C3(CC3)c3cccc(F)c31)n2CCCC(F)(F)F | 1
12 | NCc1ccc2c(c1)nc(CN1C(=O)C3(CC3)c3ccc(F)cc31)n2C1CCC(O)CC1 (stereo not drawn) | 2.6
13 | NCc1ccc2c(c1)nc(CN1C(=O)C3(CC3)c3ccc(F)cc31)n2C1CCOCC1 | 1.2
14 | N=C(N)c1ccc2c(c1)nc(CN1C(=O)C3(CC3)c3ccc(F)cc31)n2CCCC(F)(F)F | 3
15 | CCNC(=N)c1ccc2c(c1)nc(CN1C(=O)C3(CC3)c3ccc(F)cc31)n2CCCC(F)(F)F | 641
16 | N=C(N)NCc1ccc2c(c1)nc(CN1C(=O)C3(CC3)c3ccc(F)cc31)n2CCCC(F)(F)F | 183
17 | NC(=O)c1ccc2c(c1)nc(CN1C(=O)C3(CC3)c3ccc(F)cc31)n2CCCC(F)(F)F | 71
18 | O=C(O)c1ccc2c(c1)nc(CN1C(=O)C3(CC3)c3ccc(F)cc31)n2CCCC(F)(F)F | > 25000
19 | CS(=O)(=O)c1ccc2c(c1)nc(CN1C(=O)C3(CC3)c3ccc(F)cc31)n2CCCC(F)(F)F | 1070
20 | CC(=O)NCc1ccc2c(c1)nc(CN1C(=O)C3(CC3)c3ccc(F)cc31)n2CCCC(F)(F)F | 365
21 | O=C1N(Cc2nc3ccccc3n2CCCC(F)(F)F)c2cc(F)ccc2C12CC2 | 37
22 | O=C1N(Cc2nc3cc(Cl)ccc3n2CCCC(F)(F)F)c2cc(F)ccc2C12CC2 | 6.2
23 | NCc1ccc2c(c1)nc(CN1C(=O)C3(CC3)c3ccc(F)cc31)n2CCCC(F)(F)F [Sisunatovir] | 0.9

Reference: BindingDB's records for doi:10.1021/acs.jmedchem.0c01882 (Reviral, 2021)
